Test system: non-transgenic maize seed from inbred N46
Assay: Priming matrix additive: Dormex + DMSO
Format: in vivo
Conditions: 1% DMSO without Dormex, 3 hours
Description: Non-transgenic maize seed from inbred N46 were primed with 0, 5, 10, 15, or 30% Dormex® solutions with and without 1% DMSO. For each treatment, 96 seeds were soaked in 50 ml of Dormex® solution in a petri dish for 3 hours at room temperature. After priming the seeds were transferred into pollination bags, and dried overnight in front of a fan. Dried primed seed were then planted into flats to germinate.

C[S+](C)[O-] [DMSO] showed a Germination % of 93%.

From patent publication US20100154083A1, “Methods and Compositions for the Selection of A Transgenic Plant” (Pioneer Hi-Bred International, Inc., priority 2006, published 2010)
